Data from the METLIN SMRT retention time set (Domingo-Almenara et al. 2019).

Assay: gradient 5% acetonitrile 3 min, to 50% in 2 min, to 85% in 15 min, held 3 min, 100 µL/min
Conditions: column: Zorbax Extend-C18 2.1 x 50 mm; eluents: water / acetonitrile, 0.1% formic acid
Outline: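 The mobile phases were water and acetonitrile, each with 0.1% formic acid, pumped at 100 μL/min through a Zorbax Extend-C18 column (2.1 × 50 mm, 1.8 μm). Pure standards were injected as mixtures of ~100 molecules and detected by a quadrupole time-of-flight mass spectrometer in positive and negative ionization mode. Retention time came from computationally picked adduct peaks, each inspected by hand.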

SMILES | RP-LC retention time [s]
CCc1nn2c(N3CCN(c4ccccn4)CC3)cc(C)nc2c1-c1ccc(F)cc1 | 686
COc1cc(NC(=O)Cn2nc(N3CCCC(C)C3)c3ccccc3c2=O)cc(OC)c1 (stereo not given) | 1100
O=C(N[C@H]1C[C@@H]2C[C@H]1CN2C(=O)NCCc1ccccc1)c1cccs1 | 716
COC(=O)c1cc(C)nc2c1c(=O)n(Cc1nc(-c3ccc(OC)c(OC)c3)oc1C)c(=O)n2C | 964
O=C(NC1CCCCC1)C1CCCN(c2ccc(=O)n(-c3cccc(F)c3)n2)C1 (stereo not given) | 785
COc1ccc(-c2nc3ncccn3c2Nc2ccc(C)cc2)cc1 | 744
COCCNC(=O)CC1CCN(C(=O)c2cc3cc(Cl)ccc3[nH]2)CC1 | 701
Cc1cc2c(cc1S(=O)(=O)N1CCC(C(=O)N3CCCCC3)CC1)OCC(=O)N2 | 734
COc1ccccc1-c1csc(-c2nnn(-c3ccccc3)c2N)n1 | 1070
CCCNC(=O)C1CCCN(c2nnc3c(Cl)cccn23)C1 (stereo not given) | 571
O=C(NCCCN1CCOCC1)c1c(OCC2CC2)cc(=O)n2c1CCCCC2 | 568
COc1ccc(-c2noc(C3CCCN3C(=O)c3ccccc3OC)n2)cc1 (stereo not given) | 901
Cc1ccc(-c2cn3c(CC(=O)NC4CCCC4)csc3n2)cc1C | 798
O=C(Cc1ccccc1)NC1CCN(c2cc(-c3ccc(Cl)cc3)[nH]n2)C1 (stereo not given) | 764
CCn1c(=O)c2ccn(CC(=O)N3CCCc4ccccc43)c2n(CC)c1=O | 776
CCCCNC(=O)C1CCN(Cc2cc3ccccc3n2Cc2cccc(C)c2)CC1 | 800
Cc1ccc(CNS(=O)(=O)c2ccc(-c3nnc(C)o3)o2)o1 | 737
Cn1cnc(S(=O)(=O)N2CCC(Cc3nncn3-c3ccccc3)CC2)c1 | 629
O=C(NC1CCCCCC1)C1=C2CCCN2c2ccc(F)cc2S1(=O)=O | 970
Cc1noc(C)c1S(=O)(=O)N1CCC(C(=O)NCCc2csc(-c3cccs3)n2)CC1 | 858
Cc1ccc(C(=O)NCc2nc(-c3ccc4c(c3)oc(=O)n4C(C)C)no2)cc1 | 871
O=C1CCN(C(=O)Nc2ccccc2)CCOCCN1 | 613
O=C(N[C@H]1C[C@@H]2C[C@H]1CN2C(=O)c1ccccc1Cl)c1cccs1 | 701

SMILES | RP-LC retention time [s]
CNC(=O)CN1CCC(Oc2cc3c(Nc4cccc(Cl)c4F)ncnc3cc2OC)CC1 | 610
O=C(COc1ccccc1F)NCC1CCN(S(=O)(=O)C2CC2)CC1 | 712
O=C(Nc1cccc(-c2ccn[nH]2)c1)c1ccco1 | 631
CCNC(=O)c1c(-c2cccc(F)c2)noc1C | 797
Cc1ccc(F)c(NS(=O)(=O)c2cc(-c3[nH]ncc3C(=O)N3CCCC3)oc2C)c1 | 710
CSc1cccc(NC(=O)C2CCN(c3cnc4nccnc4c3)CC2)c1 | 752
COc1ccccc1-c1noc(Cn2c(=O)n(C(C)C)c(=O)c3ccccc32)n1 | 994
COc1cccc(NC(=O)c2cnc3c(c2)c(=O)n(C)c(=O)n3C)c1 | 795
CCN1CCN(CCCNC(=O)C2=Cc3cc(OC)ccc3OC2)CC1 | 578
CCc1nc(-c2csc(S(=O)(=O)N3CCC(C(=O)Nc4ccccc4F)CC3)c2)no1 | 981
O=C(Nc1ccc(Cl)cc1)C1CC(=O)N(CCc2c[nH]c3ccc(F)cc23)C1 (stereo not given) | 857
O=C(NCCC1CCN(C(=O)Nc2cc(F)cc(F)c2)CC1)c1cccs1 | 861
Cn1ncc(N2CCCC(CC(=O)O)C2)cc1=O (stereo not given) | 613
Nc1cc(C2CCN(C(=O)c3cc4ccccc4[nH]3)CC2)no1 | 713
Cc1ccc(S(=O)(=O)N2CCOCC2)cc1-c1nnc(-c2ccccc2)o1 | 919
Cc1ccc(-n2c(=O)c3c(cc(C)n3C)n(CC(=O)Nc3cc(Cl)ccc3C)c2=O)cc1 | 952
CCOc1nc2ccccc2nc1N1CCCC(C(=O)Nc2cc(C)c(Cl)cc2OC)C1 (stereo not given) | 1400
O=C(NC1CCCCC1)N1CCC(OC2CCN(Cc3ccccc3)CC2)CC1 | 663
COc1ccc(CNC(=O)N2CCC(c3cc(N)on3)CC2)cc1 | 642
COc1cc(OC)c(NC(=O)C2CC(=O)N(c3cccc(NC(C)=O)c3)C2)cc1Cl (stereo not given) | 712
Cn1c(N2CCCC(C(=O)N3CCN(c4cccc(C(F)(F)F)c4)CC3)C2)cc(=O)n(C)c1=O (stereo not given) | 831
COc1ccc(-c2nnc(COc3cccc(NC(=O)c4cncc(Br)c4)c3)o2)cc1 | 914
CC(=O)N1CCc2cc(-c3ccc(C(=O)NCCCN4CCCC4=O)cc3)ccc21 | 672

SMILES | RP-LC retention time [s]
CNC(=O)c1cnn2c3c(cnc12)CCCCCC3 | 831
Cc1ccc(CNC(=O)c2cc3n(n2)CC(C)(C(=O)NCc2ccc(C)cc2)N(C)C3=O)cc1 (stereo not given) | 823
COc1cccc(-c2noc(CN3C(=O)COc4cc(C(C)(C)C)ccc43)n2)c1 | 1200
O=C(c1cc(S(=O)(=O)N2CCCCCC2)ccc1Cl)N1CCN(c2ncccn2)CC1 | 926
Cc1ccc(S(=O)(=O)N2CCC3(CCC(CN4CCN(C)CC4)O3)CC2)cc1Cl (stereo not given) | 655
CNC(=O)C1CCCN(c2nc3ncn(CC(=O)NCc4ccc(OC)cc4)c(=O)c3s2)C1 (stereo not given) | 632
CCC(=O)n1nc(-c2ccccc2Cl)nc1N | 837
CCC1(O)CCC12CCN(C(=O)C1CC1)CC2 (stereo not given) | 678
CCc1cccc(N2C(=O)CN(S(C)(=O)=O)CC2(C)C(=O)NCc2ccc(F)cc2)c1 (stereo not given) | 847
CSc1ccc(CNC(=O)CCCn2nc(-n3cccc3)c3c(C)cc(C)nc32)cc1 | 1030
COc1cc(C)c(Br)cc1S(=O)(=O)N1CCC(C(N)=O)CC1 | 697
c1cc(-c2nc(-c3ccnc(N4CCCC4)c3)no2)ccn1 | 594
Fc1ccc(-c2noc(-c3ccc(N4CCCC4)nc3)n2)cc1 | 1040
Cc1ccc(CNC(=O)c2csc(-c3cn(C)c4ncccc34)n2)cc1C | 840
O=C(NCc1cccs1)C1CCN(Cc2cc3ccccc3n2Cc2ccc(F)cc2)CC1 | 783
CCN1CCCn2cc(S(=O)(=O)Nc3cc(F)ccc3C)cc2C1=O | 729
O=C(Cn1ncc2c(c1=O)N(C1CC1)C(=O)CS2)NC1CCCCC1 | 672
O=c1ccc(-c2cccc(Cl)c2)nn1CCc1nc(-c2ccc(F)cc2)no1 | 1060
O=C(NCc1nnnn1C1CCCCC1)OCc1ccccc1 | 757
CCOC(=O)c1c(C)c(CCC(=O)NCc2ccc(C)o2)n(C)c1C | 842
Cc1cccc(N2CCN(c3ccc4cc(S(=O)(=O)N5CCC(C)CC5)ccc4n3)CC2C)c1 (stereo not given) | 1200
Cc1cc(C)cc(-c2nnc(Cc3nc(-c4cccc(Cl)c4)no3)o2)c1 | 1230
COc1ccc(-c2cc(N3CCN(C(=O)COc4ccc(C)cc4OC)CC3)ncn2)cc1 | 608

SMILES | RP-LC retention time [s]
Cc1cc(C)c(S(=O)(=O)N2CCc3c(c(-c4nnc(-c5ccc(F)cc5)o4)nn3C)C2)c(C)c1 | 1090
COCCCNC(=O)c1csc(N2CCN(c3ccc(F)cc3)CC2)n1 | 915
O=C(NCc1ccco1)C1CCCN(C(=O)NC2CC2)C1 (stereo not given) | 604
O=C(C1CCC1)N1CCc2sc(S(=O)(=O)NCc3ccc4c(c3)OCO4)cc2C1 | 836
Cn1nccc1-c1cccc(-c2noc(Cc3ccc(Cl)cc3)n2)c1 | 1130
O=C(Nc1ccc(F)c(F)c1)C1CCN(C(=O)c2ncn3c2COC(c2ccccc2)C3)CC1 (stereo not given) | 819
CCn1cc(S(=O)(=O)N2CCCC2c2noc(CO)n2)cn1 (stereo not given) | 619
Brc1cncc(-c2nc(-c3ccc4c(c3)ncn4CCN3CCCC3)no2)c1 | 631
CCC(C)NC(=O)C1CCCN(c2ccc(-c3ccc(C)c(C)c3)nn2)C1 (stereo not given) | 716
Cc1ccc([N+](=O)[O-])cc1NC(=O)Nc1cccc(F)c1 | 1010
CCCn1nc(C)cc1CN(C)c1ccc(NC(=O)CC)cc1C(=O)O | 618
COc1cc(NC(=O)c2[nH]c3cc(C)sc3c2CN2CCOCC2)cc(OC)c1 | 718
O=C(Nc1cnc(N2CCCC2)nc1)c1cccc(F)c1 | 716
CCOCCCNC(=O)N1CCC(c2noc(-c3ccncc3)n2)C1 (stereo not given) | 643
O=C(C1CCCO1)N1CCC(OCc2nc(-c3cccnc3)no2)CC1 (stereo not given) | 636
Cc1ccc(NC(=O)Cn2cccc2-c2nnc(C3CCC3)o2)cc1Cl | 1010
Cc1ccc(Nc2c(-c3c(F)cccc3Cl)nc3ccc(Br)cn23)cc1 | 985
O=C(NCCc1csc(-c2cccs2)n1)C1CCN(C(=O)CCc2ccccc2)CC1 | 839
COCCNC(=O)c1nccnc1NC(=O)c1ccc(C)cc1 | 759
COCc1nncn1C1CCN(S(=O)(=O)c2ccc(F)c(Cl)c2)CC1 | 739
O=C(Nc1nc(-c2ccc(F)cc2)cs1)C1CC1 | 884
